Test results: patent US6814966B1, “Methods for treating glaucoma” (Pharmacia Corporation, priority 2000, dated 2004)

Test system: retinal ganglion cells in co-cultures with glial cells
Experiment: TUNEL apoptosis of retinal ganglion cells in co-cultures with glial cells under stress conditions
Type: cell-based, rat
Conditions: for decrease of rate of positive TUNEL: antibody 10 ug/ml, 1400W 2.5 uM
Description: Retinal ganglion cell cultures. Primary cultures of retinal ganglion cells were derived from newborn rat retinas using a protocol similar to that recently described^70. All experiments were performed in accordance with the ARVO Statement for the Use of Animals in Ophthalmic and Vision Research and were approved by The Animal Studies Committee of Washington University. Five to seven days old Sprague-Dawley rats were anesthetized and their eyes were enucleated. The eyes were rinsed with CO2-independent culture medium (Gibco, Grand Island, N.Y.) and retinas were mechanically dissected under a microscope. To prepare retinal cell suspensions, tissues were dissociated in Eagles's minimum essential medium containing 20 U/ml papain, 1 mM L-cystein 0.5 mM EDTA and DNase (0.005%) (Worthington, Lakewood, N.J.) at 37° C. for 40 minutes. Then, retinas were rinsed in an inhibitor solution containing Eagle's minimum essential medium, ovomucoid (0.2%) (US Biological, Swampscott, Mass.), DNAase (0.04%) and bovine serum albumin (0.1%) (Sigma, St. Louis, Mo.). At the end of treatment period, tissues were triturated through a 1 ml plastic pipette to yield a suspension of single cells. The retinal cells were spun at 400 g for 10 minutes, resuspended in Eagle's minimum essential medium containing bovine serum albumin (0.05%) and incubated in a tissue culture incubator until their immediate use for subsequent separation by immunomagnetic selection^71,72.
Immunomagnetic selection of the retinal ganglion cells was performed using magnetic, 2.8±0.2 um diameter, polystyrene beads coated with biotinylated rat monoclonal antibody against mouse IgG1 (Dynal, Oslo, Norway) in a two step process. In the first step, after washing with phosphate buffered saline solution containing 0.1% bovine serum albumin, 1×10^7 beads/ml were added to monoclonal antibody against macrophage surface antigens (100 ug/ml) (Sigma). After incubation at room temperature on a rotator for 30 minutes, beads were washed using a specially designed magnet (Dynal). […]

CC(=N)NCc1cccc(CN)c1.Cl.Cl [1400W, N-(3-(aminomethyl)benzyl)acetamidine. dihydrochloride]
decrease of rate of positive TUNEL (co-cultures under elevated hydrostatic pressure): approximately 35%
decrease of rate of positive TUNEL (co-cultures under simulated ischemia): approximately 50%
attenuation of retinal ganglion cell apoptosis (summary statement, simulated ischemia and elevated hydrostatic pressure, stressor not specified): ~50%
